Source: PubChem BioAssay (NCI)
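These data come from cells grown in 96-well plates and exposed to compound for 48 hours at five concentrations. TGI marks complete inhibition of growth.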

Columns and labels:
Experiment in all cases: NCI tumour cell line growth inhibition, 48 h
[1] = system: MDA-MB-435
[2] = system: SF-268 CNS
[3] = system: SNB-75 CNS
[4] = system: SF-295 CNS
[5] = system: NCI-H226 lung
[6] = system: HT29 colon
[7] = system: COLO 205 colon
[8] = system: T-47D breast
[9] = system: ACHN renal
[10] = system: EKVX NSCLC
[11] = system: RXF 393 renal
[12] = system: HCT-116 colon
[13] = system: LOX IMVI melanoma
[14] = system: HCC-2998 colon
[15] = system: SK-MEL-28 melanoma
[16] = system: 786-0 renal
[17] = system: OVCAR-3 ovarian
[18] = system: CAKI-1 renal
[19] = system: UO-31 renal
[20] = system: SR leukemia

| SMILES | TGI [1] [µM] | TGI [2] [µM] | TGI [3] [µM] | TGI [4] [µM] | TGI [5] [µM] | TGI [6] [µM] | TGI [7] [µM] | TGI [8] [µM] | TGI [9] [µM] | TGI [10] [µM] | TGI [11] [µM] | TGI [12] [µM] | TGI [13] [µM] | TGI [14] [µM] | TGI [15] [µM] | TGI [16] [µM] | TGI [17] [µM] | TGI [18] [µM] | TGI [19] [µM] | TGI [20] [µM] |
| --- | --- | --- | --- | --- | --- | --- | --- | --- | --- | --- | --- | --- | --- | --- | --- | --- | --- | --- | --- | --- |
| CCOC(=O)c1c(-c2ccc(Br)cc2)ccn1C | > 10 | > 10 | > 10 | > 10 | > 10 | > 10 | > 10 | > 10 | > 10 | > 10 | > 10 | > 10 | > 10 | > 10 | > 10 | > 10 | > 10 | > 10 | – | – |
| Oc1ccccc1C1=NOC(c2ccc(C(F)(F)F)cc2)C1 (stereo not drawn) | > 50 | > 50 | > 50 | > 50 | > 50 | > 50 | > 50 | > 38.1 | > 50 | > 50 | > 50 | > 50 | > 50 | > 50 | > 50 | > 50 | > 50 | > 50 | > 50 | – |
| N#Cc1c(O)cc(=O)n2c1[nH]c1ccccc12 | > 100 | > 100 | > 100 | > 100 | > 100 | > 100 | > 100 | – | > 100 | > 100 | > 100 | > 100 | – | > 100 | – | > 100 | > 100 | > 100 | > 100 | > 100 |
| COC(=O)C1=C(C(=O)OC)SC(=C2S[C@@H]3[C@@H]4C[C@H]([C@@H]3S2)[C@H]2C(=O)OC(=O)[C@@H]42)S1 | > 100 | > 100 | – | > 100 | > 100 | > 100 | > 100 | > 100 | > 100 | > 100 | > 100 | > 100 | > 100 | > 100 | > 100 | > 100 | > 100 | > 100 | > 100 | – |
| COC1=CC(=O)c2c(c(COP(=O)(N(C)CCBr)N(C)CCBr)cn2C)C1=O | 0.222 | 1.75 | 0.442 | 0.366 | – | 0.222 | 0.209 | 19 | 0.0728 | 0.578 | 0.289 | – | 3.56 | 0.192 | 0.33 | 0.349 | 0.877 | 0.377 | 0.294 | – |
| Cc1nn2c(C(=O)N/N=C/c3ccc([N+](=O)[O-])cc3)c(C)nc2s1 | > 100 | > 100 | > 100 | > 100 | > 100 | > 100 | > 100 | > 100 | > 100 | > 100 | > 100 | > 100 | > 100 | > 100 | > 100 | > 100 | > 100 | > 100 | > 100 | – |
